One test concerns PC3 cell line. The test is described as follows: MTS cell survival assay, PC3 prostate cancer cells. Format: cell-based, human. As to conditions: FIG. 8, day five. The protocol: (§1) The effect of phosphoaminoglycosides on tumor cell growth was tested in cell culture inhibition studies. 5000 cells were plated in a total volume of 50 μl in a 96 well titer plate. After 24 hours, 50 μl of media and drugs, to the required final concentration, were added. The plates were incubated at 37° C. for 5 days. On the 5th day, the fraction of surviving cells was estimated using a non-radioactive cell proliferation assay (CellTiter 96 AQueous Cell Proliferation Assay from Promega).
(§2) This is a colorimetric assay that determines the number of viable cells. The assay measures the bioreduction of a tetrazolium compound (3-(4,5-dimethylthiazol-2-yl)-5-(3-carboxymethoxyphenyl)-2-(4-sulfophenyl)-2H-tetrazolium, inner salt; MTS), via an electron coupling reagent (phenazine methosulfate; PMS), to formazan, which is soluble in the tissue culture medium. The absorbance of formazan at 490 nm can be measured from the 96 well assay plate without additional processing. The conversion of MTS into the aqueous soluble formazan is accomplished by dehydrogenase enzymes found in metabolically active cells. The quantity of formazan product as measured by the amount of 490 nm absorbance is directly proportional to the number of living cells in culture. 100 μl of the PMS reagent (Promega) was mixed with 2.0 ml of MTS solution (Promega). 20 μl of PMS/MTS solution was added to the cells and the plates were incubated at 37° C. for 2 hours before measuring the absorbance at 490 nm.
In an initial experiment, four drugs (A-kanamycin, B-phosphokanamycin, C-neomycin, and D-phosphoneomycin) were added to prostate cancer cell cultures in a blind fashion. Two prostate cancer cell lines were incubated with each of the drugs and assayed for cell survivability using the MTS assay (Promega).
5000 cells were grown overnight in media and each respective drug (A-kanamycin, B-phosphokanamycin, C-neomycin, and D-phosphoneomycin) was added on the second day. […] Each point is the average of readings from three wells.
For orientation: Formazan colour is commonly taken as a measure of viable cells.

The next test relates to LNCaP cell line. The test is described as follows: MTS cell survival assay, LNCaP prostate cancer cells. Conditions: Homo sapiens, 120 h, 8 wells, 5 days. Format: cell-based. On the procedure: as §1
as §2, with “100 μl of the PMS reagent (Promega) was mixed with 2.0 ml of MTS solution (Promega).” left out, “nm. […]” for “nm.”

For a further test, the target named is T1, DNA-dependent ATPase A (Bos taurus, UniProt Q9TTA5).
T1 sequence (Q9TTA5 222-940): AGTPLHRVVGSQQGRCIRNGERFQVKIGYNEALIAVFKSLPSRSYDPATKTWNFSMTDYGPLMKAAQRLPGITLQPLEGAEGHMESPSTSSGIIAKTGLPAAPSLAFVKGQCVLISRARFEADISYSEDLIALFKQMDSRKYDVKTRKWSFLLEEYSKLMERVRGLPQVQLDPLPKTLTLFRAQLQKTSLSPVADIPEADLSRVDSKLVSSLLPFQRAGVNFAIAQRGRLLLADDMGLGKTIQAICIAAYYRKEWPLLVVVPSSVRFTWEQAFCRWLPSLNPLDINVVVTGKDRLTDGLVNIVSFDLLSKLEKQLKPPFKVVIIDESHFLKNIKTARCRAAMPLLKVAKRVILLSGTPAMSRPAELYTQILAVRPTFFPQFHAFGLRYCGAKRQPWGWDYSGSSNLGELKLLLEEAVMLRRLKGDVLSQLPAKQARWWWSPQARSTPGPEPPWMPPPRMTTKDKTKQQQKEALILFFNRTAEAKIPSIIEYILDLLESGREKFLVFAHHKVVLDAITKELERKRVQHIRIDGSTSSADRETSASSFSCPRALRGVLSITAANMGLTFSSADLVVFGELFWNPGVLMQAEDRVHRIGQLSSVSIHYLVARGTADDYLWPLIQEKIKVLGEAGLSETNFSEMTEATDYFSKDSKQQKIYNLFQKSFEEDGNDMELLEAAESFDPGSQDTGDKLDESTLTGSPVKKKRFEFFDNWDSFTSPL
The test is described as follows: Inhibition of ATP hydrolysis by DNA-dependent ATPase A (overexpressed 82 kDa ADAAD). Format: biochemical, bovine. As to conditions: for inhibition of DNA-dependent ATPase A activity (in words): in vitro. The protocol: Enzyme (0.2 units (one unit is the amount of enzyme required to hydrolyze 1 μmole of adenosine triphosphate per min)) was mixed with 50 mM Tris-SO4, pH 7.5, 1 mM MgCl2, 5 mM β-mercaptoethanol, 0.5 mg/mL bovine serum albumin, 2 mM phosphoenol pyruvate, 0.03 mg/mL pyruvate kinase, 10 nM of stem-loop DNA, and 2 mM adenosine triphosphate in a total volume of 100 μL. The reaction was typically incubated at 37° C. for 10-60 minutes. At the end of the designated time, 225 μL of 10% sodium dodecyl sulfate and 350 μL of water were added to stop the reaction. Color development requires the addition of two reagents: 180 μL of reagent A (prepared by mixing equal volumes of 60 to 70% perchloric acid and 5% ammonium molybdate in water) and 45 μL of reagent B (0.2 g 1:2:4 aminonaphthol sulfonic acid, 12.0 g sodium metabisulfite, and 2.4 g sodium sulfite dissolved in 100 mL of water) was added. The reaction was incubated at room temperature for 10 minutes and the absorbance was read at 720 nm. The color development was time-dependent and therefore samples must be read at exactly 10 minutes.
Enzyme (0.2 units (one unit is the amount of enzyme required to hydrolyze 1 μmole of adenosine triphosphate per min)) was mixed with 25 mM Tris-acetate pH 7.5, 6 mM Mg(acetate)2, 60 mM KCl, 5 mM β-mercaptoethanol, 3 mM phosphoenol pyruvate, 10 units/mL pyruvate kinase, 10 units/mL lactate dehydrogenase 10 nM DNA, 2 mM adenosine triphosphate, and 0.1 mg/mL NADH in a final volume of 1 mL. The progress of the reaction at 37° C. was monitored at 340 nm using an HP8452 spectrophotometer.
Enzyme (0.2 U) was mixed with 50 mM Tris-SO4, pH 7.5, 1 mM MgCl2, 5 mM β-mercaptoethanol, 0.5 mg/mL bovine serum albumin, 2 mM phosphoenol pyruvate, 0.03 mg/mL pyruvate kinase, 10 nM of stem-loop DNA, and 2 mM adenosine triphosphate in a total volume of 50 μL. Three (3) μCi of [^32P]-γ-adenosine triphosphate was added to the reaction and typical incubation was for 60 minutes 37° C. EDTA (25 mM) was added to stop the reaction. 10 μL of the reaction was spotted on a poly(ethylenimine)-cellulose plate. The plate was developed using 0.9M LiCl and 7M urea as solvent system. The plate was allowed to dry and autoradiographed either using X-OMAT film or a phosphorimager. […]

This is an account of results in US6573060B1, “Methods and compositions for targeting DNA metabolic processes using aminoglycoside derivatives” (University of Virginia Patent Foundation, priority 1997, dated 2003).

Turning to `NC[C@H]1O[C@H](O[C@H]2[C@H](O)[C@@H](O[C@H]3O[C@H](CO)[C@@H](O)[C@H](N)[C@H]3O)[C@H](N)C[C@@H]2N)[C@H](O)[C@@H](OP(=O)(O)O)[C@@H]1O` [phosphokanamycin, 3′-phosphokanamycin], the “effect on PC3 cells (in words)” value in the test on PC3 cell line was “effective in killing the PC3 cells”. In addition, the viability at 100 µM in the test with LNCaP cell line came out at 109 ± 9%. The Ki at DNA-dependent ATPase A (Table 4, determined in the presence of effector) was 580 nM; on DNA-dependent ATPase A (kinetic analysis of ATP hydrolysis, competitive with respect to DNA), ~200 nM. For the same molecule, the “inhibition of DNA-dependent ATPase A activity (in words)” value was “inhibitor” against DNA-dependent ATPase A and “potent competitive (with respect to DNA) inhibitor” against DNA-dependent ATPase A (listed as 3′-phosphokanamycin). The “decrease in amount of drug required for a given level of inhibition / potency relative to the parent aminoglycoside” value at DNA-dependent ATPase A (phosphorylated derivative vs parent) was 1000 fold.

For orientation: viability means a read-out of living cells in per cent, often relative to untreated cells. The term Ki denotes a dissociation constant, usually derived from enzyme kinetics or from competition with a known ligand.
